According to PubChem BioAssay AID2060905 (Molecular Pharmacology Branch, DTP, NCI, 2025):
Each block holds one compound with its values, some of them ahead of it.

Test system: 282377-053-R-J1-PDC complex spheroid viability
Assay: Anticancer human tumor 282377-053-R-J1-PDC patient-derived colon adenocarcinoma cell line growth inhibition [RAS]
Details: for IC50: curve of first compound; for viability, T/C: stronger effect = lower value
Outline: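 Tumour cells grown as complex spheroids with HUVEC endothelial cells and mesenchymal stem cells, treated with RAS pathway inhibitor combinations. Each agent spans half-log steps from near clinical Cmax, or 10 microM where Cmax is unknown.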

[1] = second compound 0.000949 µM, first compound 0.0316 µM
[2] = second compound 0.000949 µM, first compound 0.1 µM
[3] = second compound 0.000949 µM, first compound 0.316 µM
[4] = second compound 0.000949 µM, first compound 1 µM
[5] = second compound 0.000949 µM, first compound 3.16 µM
[6] = second compound 0.000949 µM, first compound 10 µM
[7] = second compound 0.003 µM, first compound 0.0316 µM
[8] = second compound 0.003 µM, first compound 0.1 µM
[9] = second compound 0.003 µM, first compound 0.316 µM
[10] = second compound 0.003 µM, first compound 1 µM
[11] = second compound 0.003 µM, first compound 3.16 µM
[12] = second compound 0.003 µM, first compound 10 µM
[13] = second compound 0.00949 µM, first compound 0.0316 µM
[14] = second compound 0.00949 µM, first compound 0.1 µM
[15] = second compound 0.00949 µM, first compound 0.316 µM
[16] = second compound 0.00949 µM, first compound 1 µM
[17] = second compound 0.00949 µM, first compound 3.16 µM
[18] = second compound 0.00949 µM, first compound 10 µM
[19] = second compound 0.03 µM, first compound 0.0316 µM
[20] = second compound 0.03 µM, first compound 0.1 µM
[21] = second compound 0.03 µM, first compound 0.316 µM
[22] = second compound 0.03 µM, first compound 1 µM
[23] = second compound 0.03 µM, first compound 3.16 µM
[24] = second compound 0.03 µM, first compound 10 µM
[25] = second compound 0.0949 µM, first compound 0.0316 µM
[26] = second compound 0.0949 µM, first compound 0.1 µM
[27] = second compound 0.0949 µM, first compound 0.316 µM
[28] = second compound 0.0949 µM, first compound 1 µM
[29] = second compound 0.0949 µM, first compound 3.16 µM
[30] = second compound 0.0949 µM, first compound 10 µM
[31] = second compound 0.3 µM, first compound 0.0316 µM
[32] = second compound 0.3 µM, first compound 0.1 µM
[33] = second compound 0.3 µM, first compound 0.316 µM
[34] = second compound 0.3 µM, first compound 1 µM
[35] = second compound 0.3 µM, first compound 3.16 µM
[36] = second compound 0.3 µM, first compound 10 µM
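Further: spheroids exposed to agents for seven days before readout.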
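Wherever viability, T/C is given: luminescence viability as percent of DMSO vehicle control wells.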

IC50 (second compound 0.000949 µM): 1710 nM
IC50 (second compound 0.003 µM): 1480 nM
IC50 (second compound 0.00949 µM): 1720 nM
IC50 (second compound 0.03 µM): 1530 nM
IC50 (second compound 0.0949 µM): 1780 nM
IC50 (second compound 0.3 µM): 1800 nM
SMILES: CCC(CC)c1cc(NC2CCC(N)C2)n2nccc2n1 (centres undefined) + CCn1c(-c2cc(N3CCN(C)CC3)cnc2C(C)OC)c2c3cc(ccc31)-c1csc(n1)CC(NC(=O)C1CC1C)C(=O)N1CCCC(N1)C(=O)OCC(C)(C)C2
viability, T/C [1]: 85.5%
viability, T/C [2]: 98.8%
viability, T/C [3]: 98.5%
viability, T/C [4]: 84.1%
viability, T/C [5]: 11.1%
viability, T/C [6]: 6.68%
viability, T/C [7]: 89.4%
viability, T/C [8]: 86.5%
viability, T/C [9]: 81.2%
viability, T/C [10]: 70.5%
viability, T/C [11]: 10.4%
viability, T/C [12]: 3.1%
viability, T/C [13]: 81.9%
viability, T/C [14]: 95.3%
viability, T/C [15]: 72%
viability, T/C [16]: 90.7%
viability, T/C [17]: 10.8%
viability, T/C [18]: 4.36%
viability, T/C [19]: 76%
viability, T/C [20]: 82%
viability, T/C [21]: 85.7%
viability, T/C [22]: 71.2%
viability, T/C [23]: 13.2%
viability, T/C [24]: 7.45%
viability, T/C [25]: 95.7%
viability, T/C [26]: 87.2%
viability, T/C [27]: 76.1%
viability, T/C [28]: 88.6%
viability, T/C [29]: 13%
viability, T/C [30]: 2.75%
viability, T/C [31]: 94.7%
viability, T/C [32]: 78%
viability, T/C [33]: 86.1%
viability, T/C [34]: 94.9%
viability, T/C [35]: 13.4%
viability, T/C [36]: 3.35%

IC50 (second compound 0.000949 µM): > 10000 nM
IC50 (second compound 0.003 µM): > 10000 nM
IC50 (second compound 0.00949 µM): > 10000 nM
IC50 (second compound 0.03 µM): > 10000 nM
IC50 (second compound 0.0949 µM): > 10000 nM
IC50 (second compound 0.3 µM): > 10000 nM
SMILES: Cc1nc(N2CCC3(CC2)COC(C)C3N)c(CO)nc1Sc1ccnc(N)c1Cl (centres undefined) + CCn1c(-c2cc(N3CCN(C)CC3)cnc2C(C)OC)c2c3cc(ccc31)-c1csc(n1)CC(NC(=O)C1CC1C)C(=O)N1CCCC(N1)C(=O)OCC(C)(C)C2
viability, T/C [1]: 88.7%
viability, T/C [2]: 92.8%
viability, T/C [3]: 89.5%
viability, T/C [4]: 87.7%
viability, T/C [5]: 76.8%
viability, T/C [6]: 96.8%
viability, T/C [7]: 80.6%
viability, T/C [8]: 94.4%
viability, T/C [9]: 78.7%
viability, T/C [10]: 80.5%
viability, T/C [11]: 94.8%
viability, T/C [12]: 96.5%
viability, T/C [13]: 82.7%
viability, T/C [14]: 64.8%
viability, T/C [15]: 74.6%
viability, T/C [16]: 105%
viability, T/C [17]: 74.5%
viability, T/C [18]: 94%
viability, T/C [19]: 80.6%
viability, T/C [20]: 82.2%
viability, T/C [21]: 90.1%
viability, T/C [22]: 85.3%
viability, T/C [23]: 88%
viability, T/C [24]: 91.1%
viability, T/C [25]: 69.7%
viability, T/C [26]: 93.5%
viability, T/C [27]: 88.9%
viability, T/C [28]: 78.6%
viability, T/C [29]: 95.5%
viability, T/C [30]: 93.8%
viability, T/C [31]: 80.5%
viability, T/C [32]: 88.8%
viability, T/C [33]: 91.1%
viability, T/C [34]: 105%
viability, T/C [35]: 112%
viability, T/C [36]: 89.8%
